Data published in the supplement of paper PMC10883282.

Key:
Experiment in all cases: relative viability vs DMSO control (72 h) (fraction); higher = more viable cells
HT1080 = tested on: HT1080
Summary of the method: (§1)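 Sarcoma cell lines were seeded in 384-well plates at densities chosen for 80–90% confluence, then 24 h later given 2.5 µl of serially diluted compound drawn from source plates spanning 10 mM to 0.0002 mM. They were held 72 h at 37 °C, 5% CO2, with 0.1% DMSO vehicle and a 5 µM positive control included. Relative viability was read with ATPLite as percent growth and averaged over up to triplicate wells. Rescaling placed full at 1 and none at 0.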

SW872 = tested on: SW872
Summary of the method: as §1

SW1353 = tested on: SW1353
Summary of the method: as §1

KHOS-NP = tested on: KHOS-NP
Summary of the method: as §1

RD-ES = tested on: RD-ES
Summary of the method: as §1

MES-SA = tested on: MES-SA
Summary of the method: as §1

SK-ES-1 = tested on: SK-ES-1
Summary of the method: as §1

SW684 = tested on: SW684
Summary of the method: as §1

SK-LMS-1 = tested on: SK-LMS-1
Summary of the method: as §1

G401 = tested on: G401
Summary of the method: as §1

VA-ES-BJ = tested on: VA-ES-BJ
Summary of the method: as §1

RD = tested on: RD
Summary of the method: as §1

CNC(=O)c1cccc2cc(Oc3ccnc4cc(OCC5(N)CC5)c(OC)cc34)ccc12 [Lucitanib]
Settings | relative viability
G401, 0.00017 µM | 1.07
G401, 0.00051 µM | 1.04
G401, 0.00152 µM | 1.02
G401, 0.00457 µM | 0.989
G401, 0.01372 µM | 1
G401, 0.04115 µM | 1.01
G401, 0.1235 µM | 0.964
G401, 0.3704 µM | 0.888
G401, 1.111 µM | 0.641
G401, 3.333 µM | 0.451
G401, 10 µM | 0.349
HT1080, 0.00017 µM | 1.08
HT1080, 0.00051 µM | 1.09
HT1080, 0.00152 µM | 1.1
HT1080, 0.00457 µM | 1.07
HT1080, 0.01372 µM | 1.1
HT1080, 0.04115 µM | 1.09
HT1080, 0.1235 µM | 1.095
HT1080, 0.3704 µM | 1.09
HT1080, 1.111 µM | 1.11
HT1080, 3.333 µM | 1.12
HT1080, 10 µM | 1.14
KHOS-NP, 0.00017 µM | 1.103
KHOS-NP, 0.00051 µM | 1.13
KHOS-NP, 0.00152 µM | 1.12
KHOS-NP, 0.00457 µM | 1.11
KHOS-NP, 0.01372 µM | 1.11
KHOS-NP, 0.04115 µM | 1.11
KHOS-NP, 0.1235 µM | 1.126
KHOS-NP, 0.3704 µM | 1.11
KHOS-NP, 1.111 µM | 1.12
KHOS-NP, 3.333 µM | 1.12
KHOS-NP, 10 µM | 1.13
MES-SA, 0.00017 µM | 0.983
MES-SA, 0.00051 µM | 0.976
MES-SA, 0.00152 µM | 0.965
MES-SA, 0.00457 µM | 0.957
MES-SA, 0.01372 µM | 0.978
MES-SA, 0.04115 µM | 0.955
MES-SA, 0.1235 µM | 0.95
MES-SA, 0.3704 µM | 0.961
MES-SA, 1.111 µM | 0.813
MES-SA, 3.333 µM | 0.615
MES-SA, 10 µM | 0.265
RD, 0.00017 µM | 1.08
RD, 0.00051 µM | 1.12
RD, 0.00152 µM | 1.1
RD, 0.00457 µM | 1.13
RD, 0.01372 µM | 1.09
RD, 0.04115 µM | 1.129
RD, 0.1235 µM | 1.13
RD, 0.3704 µM | 1.142
RD, 1.111 µM | 1.144
RD, 3.333 µM | 1.12
RD, 10 µM | 0.9078
RD-ES, 0.00017 µM | 0.984
RD-ES, 0.00051 µM | 1.01
RD-ES, 0.00152 µM | 1
RD-ES, 0.00457 µM | 1
RD-ES, 0.01372 µM | 0.969
RD-ES, 0.04115 µM | 0.99
RD-ES, 0.1235 µM | 0.981
RD-ES, 0.3704 µM | 0.949
RD-ES, 1.111 µM | 0.92
RD-ES, 3.333 µM | 0.882
RD-ES, 10 µM | 0.798
SK-ES-1, 0.00017 µM | 1.07
SK-ES-1, 0.00051 µM | 1.12
SK-ES-1, 0.00152 µM | 1.09
SK-ES-1, 0.00457 µM | 1.11
SK-ES-1, 0.01372 µM | 1.01
SK-ES-1, 0.04115 µM | 1.07
SK-ES-1, 0.1235 µM | 1
SK-ES-1, 0.3704 µM | 1.07
SK-ES-1, 1.111 µM | 1.01
SK-ES-1, 3.333 µM | 0.865
SK-ES-1, 10 µM | 0.531
SK-LMS-1, 0.00017 µM | 1.071
SK-LMS-1, 0.00051 µM | 1.09
SK-LMS-1, 0.00152 µM | 1.056
SK-LMS-1, 0.00457 µM | 1.08
SK-LMS-1, 0.01372 µM | 1.04
SK-LMS-1, 0.04115 µM | 1.03
SK-LMS-1, 0.1235 µM | 0.988
SK-LMS-1, 0.3704 µM | 0.999
SK-LMS-1, 1.111 µM | 0.958
SK-LMS-1, 3.333 µM | 0.8754
SK-LMS-1, 10 µM | 0.758
SW684, 0.00017 µM | 1.14
SW684, 0.00051 µM | 1.23
SW684, 0.00152 µM | 1.26
SW684, 0.00457 µM | 1.23
SW684, 0.01372 µM | 1.21
SW684, 0.04115 µM | 1.21
SW684, 0.1235 µM | 1.15
SW684, 0.3704 µM | 1.18
SW684, 1.111 µM | 1.19
SW684, 3.333 µM | 1.12
SW684, 10 µM | 1.11
SW872, 0.00017 µM | 1.07
SW872, 0.00051 µM | 1.08
SW872, 0.00152 µM | 1.056
SW872, 0.00457 µM | 1.07
SW872, 0.01372 µM | 1.07
SW872, 0.04115 µM | 1.059
SW872, 0.1235 µM | 1.038
SW872, 0.3704 µM | 1.057
SW872, 1.111 µM | 1.07
SW872, 3.333 µM | 1.04
SW872, 10 µM | 0.961
SW1353, 0.00017 µM | 1.11
SW1353, 0.00051 µM | 1.06
SW1353, 0.00152 µM | 1.04
SW1353, 0.00457 µM | 1.067
SW1353, 0.01372 µM | 1.03
SW1353, 0.04115 µM | 0.967
SW1353, 0.1235 µM | 0.938
SW1353, 0.3704 µM | 0.909
SW1353, 1.111 µM | 0.8515
SW1353, 3.333 µM | 0.862
SW1353, 10 µM | 0.874
VA-ES-BJ, 0.00017 µM | 1.08
VA-ES-BJ, 0.00051 µM | 1.07
VA-ES-BJ, 0.00152 µM | 1.09
VA-ES-BJ, 0.00457 µM | 1.091
VA-ES-BJ, 0.01372 µM | 1.1
VA-ES-BJ, 0.04115 µM | 1.11
VA-ES-BJ, 0.1235 µM | 1.12
VA-ES-BJ, 0.3704 µM | 1.13
VA-ES-BJ, 1.111 µM | 1.16
VA-ES-BJ, 3.333 µM | 1.14
VA-ES-BJ, 10 µM | 0.914
